Results from PMC12051055, “Spectroscopy and crystallography define carotenoid oxygenases as a new subclass of mononuclear non-heme Fe^II enzymes” (The Journal of Biological Chemistry, 2025).

Target: T1, CAO1 (Neurospora crassa carotenoid oxygenase 1) (Neurospora crassa, UniProt Q7S860)
T1 construct: gene cao-1
T1 sequence (Q7S860 1-526): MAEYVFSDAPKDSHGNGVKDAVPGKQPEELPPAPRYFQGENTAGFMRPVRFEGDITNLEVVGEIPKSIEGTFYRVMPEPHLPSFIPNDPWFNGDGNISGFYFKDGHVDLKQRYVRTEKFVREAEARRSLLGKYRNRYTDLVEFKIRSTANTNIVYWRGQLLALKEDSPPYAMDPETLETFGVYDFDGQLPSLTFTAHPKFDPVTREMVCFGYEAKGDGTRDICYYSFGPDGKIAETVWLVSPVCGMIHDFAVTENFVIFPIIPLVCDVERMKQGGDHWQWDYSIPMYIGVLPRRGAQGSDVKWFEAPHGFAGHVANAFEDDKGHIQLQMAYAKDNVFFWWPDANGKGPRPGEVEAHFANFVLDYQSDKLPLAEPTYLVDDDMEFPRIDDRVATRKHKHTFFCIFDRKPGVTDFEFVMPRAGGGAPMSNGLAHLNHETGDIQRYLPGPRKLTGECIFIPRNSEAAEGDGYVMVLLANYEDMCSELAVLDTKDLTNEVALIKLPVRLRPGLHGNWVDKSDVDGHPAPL
Assay: UV-visible/CD titration of Fe(II)-CAO1 (anaerobic); also X-ray crystal structure, MCD, steady-state kinetics
Format: binding

Oc1cc(O)cc(/C=C/c2ccc(O)c(O)c2)c1 [piceatannol]
Kd: 50 nM
